Measurements published in US7531567B2, “Use of a medicament containing an effector of the glutathione metabolism together with α-lipoic acid in kidney replacement therapy” (Serumwerk Bernburg AG, priority 2001, dated 2009).

Columns and labels:
Type in all cases: cell-based, human
peritoneal macrophages [1] = assay: stability of membrane-bound thiol restitution in peritoneal macrophages in the dialysis model; conditions: dialysis model over 14 days; FIG. 7
Procedure: The peritoneal macrophages described under example 3, which were thiol-restituted by means of the combinations used according to the invention, were removed from this test system after 6 days and cultured in a dialysis model over a period of 14 days. For this, the peritoneal macrophages were adapted to mobile collagen IV-coated matrices and brought into contact with conventional dialysis solution 3 times daily for 60 minutes each. This model served here for the induction of a combined […]/osmotic stress. In FIG. 6, the action of the combination of α-lipoic acid and ambroxole (FIG. 6a), and α-lipoic acid and enalapril (FIG. 6b) on the intracellular thiol expression of the peritoneal macrophages in the time kinetics is presented. The membrane expression of thiols was determined by means of the mean fluorescence intensity (mfi) of the sample (3000 cells/measurement) after coupling to a chloro-methylfluorochrome derivative.

T lymphocytes = assay: activation markers CD69, CD25, CD71 of phytohemagglutinin-stimulated T lymphocytes; conditions: thiol-deficient cells, culture period of 72 hours, FIG. 3
Procedure: In the culture batch described under example 1, human T lymphocytes were stimulated with […] of phyto-hemagglutinin. […] The influence of the combinations used according to the invention on the activation markers CD69 (early activation antigen), CD25 (intermediate activation antigen) and CD71 (late activation antigen) of T lymphocytes was investigated. In FIG. 3, the action of the combination of α-lipoic acid and ambroxole (FIG. 3a), and α-lipoic acid and enalapril (FIG. 3b) on the activation index of T lymphocytes is shown. Compared with normal T lymphocytes (activation index=1.0), in thiol-deficient cells a clear lowering of the activatability, confirming the cellular functional disorder, is to be noted. […] It can thus be concluded that the normalization of the cellular thiol status mediated by the combined use of α-lipoic acid and the respective effectors of the glutathione metabolism is accompanied by a restitution of the cellular functionality.

peritoneal macrophages [2] = assay: phagocytic ability of peritoneal macrophages (fluorochrome-labelled bacteria); conditions: treatment period of 6 days
Procedure: Peritoneal macrophages were isolated analogously to the procedure described under example 3 and cultured ex vivo. The determination of the phagocytic power was carried out by means of a cytofluorometric test at the individual cell level. In this test, the macrophages were cocultured with opsonized and fluorochrome-labelled bacteria. The amount of bacteria taken up in a defined time period was recorded quantitatively by means of the fluorescence intensity in the macrophages and was regarded as a measure of their phagocytic capacity. The influence of the combinations used according to the invention on the phagocytic ability of the peritoneal macrophages after a treatment period of 6 days is presented in Table 3.

peritoneal macrophages [3] = assay: cellular thiol expression of peritoneal macrophages in kidney replacement therapy; conditions: time kinetics over 14 days (n=12); FIG. 4
Procedure: Peritoneal macrophages were isolated from the effluate of the peritoneal dialysis of high-grade renally insufficient patients, taken up in cell culture medium and incubated in a gas incubator at 37° C., a relative humidity of 98% and 7.5% relative air-CO2 content. In order to test the influence of the combinations used according to the invention on the thiol status of the peritoneal macrophages, in each case a fraction was treated with α-lipoic acid, the effector of the glutathione metabolism ambroxole or the ACE inhibitor enalapril or with the combination of α-lipoic acid/ambroxole or α-lipoic acid/enalapril, while in each case a further fraction was used as an untreated control. The determination of the cellular thiol status was carried out by means of the measuring method described under 1. The membrane expression of thiols was determined by means of the mean fluorescence intensity (mfi) of the sample (3000 cells/measurement) after coupling to a chloromethylfluorochrome derivative. In FIG. 4, the effect of the combination of α-lipoic acid and ambroxole (FIG. 4a), and α-lipoic acid and enalapril (FIG. 4b) in the time kinetics over 14 days is shown (n=12).

peritoneal macrophages [4] = assay: cytokine synthesis of peritoneal macrophages (enzyme immunoassay); conditions: treatment period of 6 days (n=10); α-lipoic acid 50 μM, ambroxole 10 μM, enalapril 5 μM, captopril 10 μM
Procedure: In parallel to this, in this experimental batch the cell culture supernatants were recovered and the cytokines interleukin-6 (IL-6) and interleukin-1 receptor antagonist (IL-1ra) contained therein, synthesized and secreted by the peritoneal macrophages, were determined.

[5] = system: lymphocytes (peripheral immune cells); assay: intracellular thiol expression of peripheral immune cells (CMFDA flow cytofluorimetry); conditions: for intracellular thiol expression: α-lipoic acid 50 μM, captopril 10 μM, combination at the same concentrations
Procedure: Peripheral immune cells of healthy donors (n=9) were isolated from the peripheral blood by means of density gradient centrifugation. Lymphocytes having a donor-dependent relative proportion of about 90% in this case normally represent the main fraction of the resulting total population of mononuclear cells. 10% of the mononuclear cells are represented by monocytes. The mononuclear cells obtained were taken up in special cell culture media and incubated in a gas incubator at 37° C., a relative humidity of 98% and 5% relative air-CO2 content. The metabolism of the primarily resting immune cells was activated by means of mitogenic stimulation (0.5 μg/ml of phytohemagglutinin). In order to test the influence of the combinations used according to the invention on the thiol status of thiol-deficient immune cells, these were artificially thiol-depleted. This was carried out by culturing in thiol-deficient media (RPMI 1603) according to tested procedures. Comparison cultures using whole media (RPMI 1640) served for the definition of the best possible normal value under culture conditions. […] Primarily nonfluorogenic CMFDA is in this case passively taken up by the cell. Binding to cytoplasmic thiol groups takes place via the chloromethyl radical. After removal of the acetate radicals by nonspecific cellular esterases, this, now cell membrane-impermeable complex becomes fluorogenic at an excitation wavelength λex=490 nm with an emission wavelength λem=520 nm. The mean fluorescence intensity of the sample (10,000 cells) is directly proportional to the concentration of the intracellular thiol groups. In FIG. 1, the action of the combination of α-lipoic acid and ambroxole (FIG. 1a) and α-lipoic acid and enalapril (FIG. 1b) on the intracellular thiol expression of lymphocytes is shown. […] The data are shown as the ratio of the cellular fluorescence intensity for calibration particles (beads) in each case analyzed in parallel. The active compound concentration of the respective combination is identical to the concentrations of the individual components.

With `O=C(O)CCCCC1CCSS1` (stereo not drawn) [α-lipoic acid] the “membrane-bound thiol expression in the dialysis model (in words)” value (peritoneal macrophages [1]) was “intermediate”, the “effect on the activation index of T lymphocytes (in words)” value (T lymphocytes) was “slight improvement in the cellular activatability” and the “increase in the phagocytosis rate in relation to the untreated control, factor” value (peritoneal macrophages [2]) was 1.85. The Phagocytosis rate (peritoneal macrophages [2]; α-lipoic acid 50 μM, ambroxole 10 μM, enalapril 5 μM, captopril 10 μM) was 687 ± 59 mfi/10,000 cells, the “effect on the cellular thiol expression of peritoneal macrophages (in words)” value (peritoneal macrophages [3]) was “increase in the cellular thiol expression” and the IL-1ra (peritoneal macrophages [4]) was 119.8 ± 19.5 ng/10^6 cells. For the same compound, the IL-6 (peritoneal macrophages [4]) was 46.9 ± 6.7 ng/10^6 cells, the intracellular thiol expression ([5]; culture period 0 d) was 2.88 ± 0.20 mfiBeads/Ratio and the intracellular thiol expression ([5]; culture period 1 d) was 2.81 ± 0.23 mfiBeads/Ratio. It also gave an intracellular thiol expression ([5]; culture period 2 d) of 2.76 ± 0.50 mfiBeads/Ratio, an intracellular thiol expression ([5]; culture period 3 d) of 2.63 ± 0.60 mfiBeads/Ratio and an intracellular thiol expression ([5]; culture period 4 d) of 2.41 ± 0.40 mfiBeads/Ratio. For the same compound, the intracellular thiol expression ([5]; culture period 6 d) was 2.23 ± 0.50 mfiBeads/Ratio, the intracellular thiol expression ([5]; culture period 8 d) was 2.02 ± 0.30 mfiBeads/Ratio and the intracellular thiol expression ([5]; culture period 10 d) was 1.89 ± 0.30 mfiBeads/Ratio. The intracellular thiol expression ([5]; culture period 12 d) was 1.86 ± 0.68 mfiBeads/Ratio, the intracellular thiol expression ([5]; culture period 14 d) was 1.83 ± 0.60 mfiBeads/Ratio and the “effect on the intracellular thiol deficit (in words)” value ([5]; thiol-deficient conditions (1603), FIG. 1) was “Neither by α-lipoic acid alone nor by the individual application of the effectors was a complete equalization of the thiol deficit possible”.
